Experimental data from ChEMBL document CHEMBL5038636, “Dihydrolucilactaene, a Potent Antimalarial Compound from Fusarium sp. RK97-94” (J Nat Prod, 2022).

Tests used:
HeLa = assay: Cytotoxicity against human HeLa cells assessed as growth inhibition; format: functional, cell-based
HL-60 = assay: Cytotoxicity against human HL-60 cells assessed as growth inhibition; format: functional, cell-based
Staphylococcus aureus = assay: Antibacterial activity against Staphylococcus aureus 209 assessed as growth inhibition; format: functional, organism-based
Escherichia coli = assay: Antibacterial activity against Escherichia coli HO141 assessed as growth inhibition; format: functional, organism-based
Aspergillus fumigatus = assay: Antifungal activity against Aspergillus fumigatus Af293 assessed as growth inhibition; format: functional, organism-based
Pyricularia oryzae = assay: Antifungal activity against Pyricularia oryzae kita-1 assessed as growth inhibition; format: functional, organism-based
Candida albicans = assay: Antifungal activity against Candida albicans JCM1542 assessed as growth inhibition; format: functional, organism-based
Plasmodium falciparum [1] = assay: Antimalarial activity against wild-type Plasmodium falcipuram 3D7 assessed as growth inhibition; format: functional, organism-based
MKN-74 = assay: Cytotoxicity against human MKN74 cells assessed as growth inhibition; format: functional, cell-based
T98G = assay: Cytotoxicity against human T98G cells assessed as growth inhibition; format: functional, cell-based
Plasmodium falciparum [2] = assay: Antimalarial activity against chloroquine-resistant Plasmodium falcipuram K1 assessed as growth inhibition; format: functional, organism-based

SMILES | IC50 (HeLa) | IC50 (HL-60) | IC50 (Staphylococcus aureus) | IC50 (Escherichia coli) | IC50 (Aspergillus fumigatus) | IC50 (Pyricularia oryzae) | IC50 (Candida albicans) | IC50 (Plasmodium falciparum [1]) | IC50 (MKN-74) | IC50 (T98G) | IC50 (Plasmodium falciparum [2])
C\C=C(/C=C(C)/C=C/C=C/C=C(\C)C(=O)[C@H]1C(=O)N[C@]2(O)CCO[C@H]12)C(=O)OC | 24.9 µM | 17.4 µM | > 70 µM | > 70 µM | > 70 µM | > 70 µM | > 70 µM | 0.15 µM | – | – | –
C\C=C(/C=C(C)/C=C/C=C/C=C(\C)C(=O)[C@]12O[C@H]1[C@@](O)(CCO)NC2=O)C(=O)OC | 14.1 µM | 15.8 µM | > 70 µM | > 70 µM | > 70 µM | > 70 µM | > 70 µM | 1.8 µM | – | – | –
C\C=C(/C=C(C)/C=C/C=C/C=C(\C)C(=O)C1C[C@@](O)(CCO)NC1=O)C(=O)OC (some centres not stated) | 21.5 µM | 37.7 µM | > 70 µM | > 70 µM | > 70 µM | 6.7 µM | > 70 µM | 0.0015 µM | > 70 µM | > 70 µM | 0.0015 µM
C\C=C(/C=C(C)/C=C/C=C/C=C(\C)C(=O)[C@H]1C(=O)N[C@]2(O)CCO[C@H]12)C(=O)O | > 70 µM | > 70 µM | > 70 µM | > 70 µM | > 70 µM | > 70 µM | > 70 µM | 43.9 µM | – | – | –
C\C=C(/C=C(C)/C=C/C=C/C=C(\C)C(=O)[C@@]1(O)C(=O)N[C@]2(O)CCO[C@H]12)C(=O)OC | > 70 µM | > 70 µM | – | – | – | – | – | 0.67 µM | – | – | –
C\C=C(/C=C(C)/C=C/C=C/C=C(\C)C(O)[C@]12O[C@H]1[C@@](O)(CCO)NC2=O)C(=O)OC (some centres not stated) | > 70 µM | > 70 µM | > 70 µM | > 70 µM | > 70 µM | > 70 µM | > 70 µM | 62.1 µM | > 70 µM | > 70 µM | –
C[C@@H]1[C@H](O)[C@@H](C)/C=C/C=C/C=C/C=C/C=C/C=C/C=C/[C@H](O[C@@H]2O[C@H](C)[C@@H](O)[C@H](N)[C@@H]2O)C[C@@H]2O[C@](O)(C[C@@H](O)C[C@@H](O)[C@H](O)CC[C@@H](O)C[C@@H](O)CC(=O)O[C@H]1C)C[C@H](O)[C@H]2C(=O)O [AMPHOTERICIN B] | – | – | – | – | 0.21 µM | 0.16 µM | 0.03 µM | – | – | – | –
C[C@@H]1CC[C@H]2[C@@H](C)C(=O)O[C@@H]3O[C@@]4(C)CC[C@@H]1[C@]32OO4 [ARTEMISININ] | – | – | – | – | – | – | – | 0.019 µM | – | – | –
O=C(N[C@H](CO)[C@H](O)c1ccc([N+](=O)[O-])cc1)C(Cl)Cl [CHLORAMPHENICOL] | – | – | 5.4 µM | 4.6 µM | – | – | – | – | – | – | –
CC(=O)O[C@H]1C(=O)[C@@]2(C)[C@H]([C@H](OC(=O)c3ccccc3)[C@]3(O)C[C@H](OC(=O)[C@H](O)[C@@H](NC(=O)c4ccccc4)c4ccccc4)C(C)=C1C3(C)C)[C@]1(OC(C)=O)CO[C@@H]1C[C@@H]2O [PACLITAXEL] | 0.0043 µM | 0.0022 µM | – | – | – | – | – | – | – | 8.7 µM | –
